Reference: PubChem BioAssay AID1918995 (Molecular Pharmacology Branch, DTP, NCI, 2023)
Several values for one entry are separate records, joined by “and”; a condition that tells them apart may be missing. Identical values can stand only once.

Tested on: 324938-238-R-J1-PDC complex spheroid growth, % test/control
Experiment: Anticancer human tumor 324938-238-R-J1-PDC patient-derived bladder carcinoma cell line growth inhibition [AhR]
Conditions: for viability, T/C: stronger effect = lower value
Summary of the method: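 Agents were dosed in half-log steps down from roughly clinical Cmax, or from 10 microM where Cmax was unknown, alone and with AhR antagonists. Read-out: percent test/control growth of tumor spheroids containing HUVEC and MSC stromal cells.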

[1] = curve of first compound, second compound 0.1 µM
[2] = curve of first compound, second compound 0.316 µM
[3] = curve of first compound, second compound 1 µM
[4] = curve of first compound, second compound 3.16 µM
[5] = curve of first compound, second compound 10 µM
[6] = second compound 0.1 µM, first compound 0.0316 µM
[7] = second compound 0.1 µM, first compound 0.1 µM
[8] = second compound 0.1 µM, first compound 0.316 µM
[9] = second compound 0.1 µM, first compound 1 µM
[10] = second compound 0.316 µM, first compound 0.0316 µM
[11] = second compound 0.316 µM, first compound 0.1 µM
[12] = second compound 0.316 µM, first compound 0.316 µM
[13] = second compound 0.316 µM, first compound 1 µM
[14] = second compound 1 µM, first compound 0.0316 µM
[15] = second compound 1 µM, first compound 0.1 µM
[16] = second compound 1 µM, first compound 0.316 µM
[17] = second compound 1 µM, first compound 1 µM
[18] = second compound 3.16 µM, first compound 0.0316 µM
[19] = second compound 3.16 µM, first compound 0.1 µM
[20] = second compound 3.16 µM, first compound 0.316 µM
[21] = second compound 3.16 µM, first compound 1 µM
[22] = second compound 10 µM, first compound 0.0316 µM
[23] = second compound 10 µM, first compound 0.1 µM
[24] = second compound 10 µM, first compound 0.316 µM
[25] = second compound 10 µM, first compound 1 µM
[26] = second compound 0.1 µM, first compound 3.16 µM
[27] = second compound 0.1 µM, first compound 10 µM
[28] = second compound 0.316 µM, first compound 3.16 µM
[29] = second compound 0.316 µM, first compound 10 µM
[30] = second compound 1 µM, first compound 3.16 µM
[31] = second compound 1 µM, first compound 10 µM
[32] = second compound 3.16 µM, first compound 3.16 µM
[33] = second compound 3.16 µM, first compound 10 µM
[34] = second compound 10 µM, first compound 3.16 µM
[35] = second compound 10 µM, first compound 10 µM
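Also: spheroids exposed to agents for seven days before viability read.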

IC50 [1] [nM] | IC50 [2] [nM] | IC50 [3] [nM] | IC50 [4] [nM] | IC50 [5] [nM] | SMILES | viability, T/C [6] [%] | viability, T/C [7] [%] | viability, T/C [8] [%] | viability, T/C [9] [%] | viability, T/C [10] [%] | viability, T/C [11] [%] | viability, T/C [12] [%] | viability, T/C [13] [%] | viability, T/C [14] [%] | viability, T/C [15] [%] | viability, T/C [16] [%] | viability, T/C [17] [%] | viability, T/C [18] [%] | viability, T/C [19] [%] | viability, T/C [20] [%] | other results
– | – | – | – | – | COc1ccc([C@@H](O)c2cc(-c3ncnc4cc(N5CCOCC5)ccc34)c(F)cc2Cl)nn1 | – | – | – | – | – | – | – | – | – | – | – | – | – | – | – | viability, T/C (compound 0.0316 µM): 109% (2×) and 99.4%; viability, T/C (compound 0.1 µM): 115% and 112% and 109%; viability, T/C (compound 0.316 µM): 59.1% and 92.5% and 94%; viability, T/C (compound 1 µM): 82.9% and 89.8% and 84%; viability, T/C (compound 3.16 µM): 59.8% and 80.3% and 73.2%; viability, T/C (compound 10 µM): 33.9% and 66% and 60.1%; IC50 (curve of compound): 4380 nM and > 10000 nM
– | – | – | – | – | Nc1ccn(C2OC(CO)C(O)C2(F)F)c(=O)n1 (stereo not given) | – | – | – | – | – | – | – | – | – | – | – | – | – | – | – | viability, T/C (compound 0.0316 µM): 68.2% and 32.2% and 53.2%; viability, T/C (compound 0.1 µM): 98.7% and 26% and 26.2%; viability, T/C (compound 0.316 µM): 79.8% and 18.3% and 16.4%; viability, T/C (compound 1 µM): 79.5% and 19.9% and 15.4%; viability, T/C (compound 3.16 µM): 87.5% and 17.6% and 11.5%; viability, T/C (compound 10 µM): 87.3% and 11.4% and 10.1%
81.3 | 65 | 67.1 | 36.7 | 22.5 | CC1COCCN1c1cc(-c2ccnn2C)c2ccnc(-c3ccn[nH]3)c2n1 (stereo not given) + CC(CO)NC(=O)c1cc(-c2ccc(Cl)cc2)nn(-c2cnn(C)c2)c1=O | 75.2 | 44.6 | 29.7 | 18.6 | 72.7 | 36.6 | 26.4 | 21.6 | 72.8 | 37.7 | 24.1 | 20.4 | 51 | 31.1 | 26.7 | viability, T/C (second compound 0.1 µM, first compound 0.00316 µM): 97%; viability, T/C (second compound 0.1 µM, first compound 0.01 µM): 110%; viability, T/C (second compound 0.316 µM, first compound 0.00316 µM): 88.6%; viability, T/C (second compound 0.316 µM, first compound 0.01 µM): 102%; viability, T/C (second compound 1 µM, first compound 0.00316 µM): 88.7%; viability, T/C (second compound 1 µM, first compound 0.01 µM): 86.6%; viability, T/C (second compound 3.16 µM, first compound 0.00316 µM): 75.9%; viability, T/C (second compound 3.16 µM, first compound 0.01 µM): 79%; viability, T/C [21]: 18.7%; viability, T/C (second compound 10 µM, first compound 0.00316 µM): 62.6%; viability, T/C (second compound 10 µM, first compound 0.01 µM): 63.7%; viability, T/C [22]: 43.9%; viability, T/C [23]: 29%; viability, T/C [24]: 24.8%; viability, T/C [25]: 20.1%
2180 | 1580 | 2110 | 1760 | 916 | CC1COCCN1c1cc(C2(S(C)(=N)=O)CC2)nc(-c2ccnc3[nH]ccc23)n1 (stereo not given) + CC(CO)NC(=O)c1cc(-c2ccc(Cl)cc2)nn(-c2cnn(C)c2)c1=O | 95.6 | 109 | 89.6 | 69.8 | 103 | 97.5 | 91.5 | 57.2 | 89.4 | 95.9 | 98.1 | 72 | 81.3 | 77.9 | 76.3 | viability, T/C [26]: 41.4%; viability, T/C [27]: 19.8%; viability, T/C [28]: 37.3%; viability, T/C [29]: 20.6%; viability, T/C [30]: 38.6%; viability, T/C [31]: 22.5%; viability, T/C [21]: 65.6%; viability, T/C [32]: 34%; viability, T/C [33]: 16.7%; viability, T/C [22]: 70.3%; viability, T/C [23]: 73.6%; viability, T/C [24]: 68.8%; viability, T/C [25]: 47.3%; viability, T/C [34]: 28.8%; viability, T/C [35]: 20%
37.1 | < 31.6 | < 31.6 | < 31.6 | < 31.6 | Nc1ccn(C2OC(CO)C(O)C2(F)F)c(=O)n1 (stereo not given) + Cc1ccccc1N=Nc1ccc(NC(=O)c2ccnn2C)c(C)c1 | 53.1 | 32.3 | 15.5 | 14.1 | 47.2 | 24.7 | 15.4 | 12.3 | 43.7 | 34.1 | 16.8 | 13.2 | 46.6 | 32.8 | 15.7 | viability, T/C [26]: 10.4%; viability, T/C [27]: 8.56%; viability, T/C [28]: 10.3%; viability, T/C [29]: 8.15%; viability, T/C [30]: 9.31%; viability, T/C [31]: 7.14%; viability, T/C [21]: 12.6%; viability, T/C [32]: 10.9%; viability, T/C [33]: 7.52%; viability, T/C [22]: 44.9%; viability, T/C [23]: 34.8%; viability, T/C [24]: 19.2%; viability, T/C [25]: 14.3%; viability, T/C [34]: 13.1%; viability, T/C [35]: 8.08%
1360 | 1070 | 1040 | 875 | 929 | NS(=O)(=O)OCC1CC(n2ccc3c(NC4CCc5ccccc54)ncnc32)CC1O (stereo not given) + Cc1ccccc1N=Nc1ccc(NC(=O)c2ccnn2C)c(C)c1 | 85.5 | 103 | 79.7 | 59 | 93.2 | 88.8 | 76.1 | 55.4 | 88 | 83.4 | 82.7 | 50.9 | 79.8 | 72.9 | 73.7 | viability, T/C [26]: 28.9%; viability, T/C [27]: 27.7%; viability, T/C [28]: 23.4%; viability, T/C [29]: 30.1%; viability, T/C [30]: 26.7%; viability, T/C [31]: 35.2%; viability, T/C [21]: 46.7%; viability, T/C [32]: 22.9%; viability, T/C [33]: 32%; viability, T/C [22]: 72.7%; viability, T/C [23]: 81%; viability, T/C [24]: 74.1%; viability, T/C [25]: 48.4%; viability, T/C [34]: 35.5%; viability, T/C [35]: 35.8%
> 10000 | > 10000 | > 10000 | > 10000 | < 31.6 | CC(C)c1c(-c2ccccc2)nc2c(C#N)c[nH]n2c1=O + Cc1cncc(-c2nc(NCCc3c[nH]c4ccccc34)c3ncn(C(C)C)c3n2)c1 | 127 | 85.5 | 95.3 | 63.9 | 124 | 129 | 89.1 | 102 | 119 | 85.3 | 83.5 | 90.8 | 101 | 68.8 | 76.8 | viability, T/C [26]: 69.6%; viability, T/C [27]: 146%; viability, T/C [28]: 113%; viability, T/C [29]: 96.4%; viability, T/C [30]: 130%; viability, T/C [31]: 102%; viability, T/C [21]: 63.8%; viability, T/C [32]: 75.8%; viability, T/C [33]: 102%; viability, T/C [22]: 2.26%; viability, T/C [23]: 3.22%; viability, T/C [24]: 2.43%; viability, T/C [25]: 3.77%; viability, T/C [34]: 3.8%; viability, T/C [35]: 1.68%
– | – | – | – | – | CCN(c1cc(-c2ccc(CN3CCOCC3)cc2)cc(C(=O)NCc2c(C)cc(C)[nH]c2=O)c1C)C1CCOCC1 | – | – | – | – | – | – | – | – | – | – | – | – | – | – | – | viability, T/C (compound 0.00949 µM): 93.5% and 100% and 111%; viability, T/C (compound 0.03 µM): 109% and 106% and 117%; viability, T/C (compound 0.0949 µM): 106% (2×) and 107%; viability, T/C (compound 0.3 µM): 83% and 100% and 116%; viability, T/C (compound 0.949 µM): 85% and 104% and 113%; viability, T/C (compound 3 µM): 124% and 97.5% and 105%; IC50 (curve of compound): > 3000 nM
5950 | 4660 | 3880 | 4600 | 5120 | CC1COCCN1c1cc(C2(S(C)(=N)=O)CC2)nc(-c2ccnc3[nH]ccc23)n1 (stereo not given) + Cc1ccccc1N=Nc1ccc(NC(=O)c2ccnn2C)c(C)c1 | 97.8 | 96.8 | 98.3 | 90.4 | 84.1 | 89.5 | 90.3 | 80.2 | 91.3 | 83.5 | 95 | 84.6 | 72.7 | 78.2 | 76.5 | viability, T/C [26]: 68.5%; viability, T/C [27]: 34.9%; viability, T/C [28]: 59%; viability, T/C [29]: 32.8%; viability, T/C [30]: 53.4%; viability, T/C [31]: 34.8%; viability, T/C [21]: 68.6%; viability, T/C [32]: 57.3%; viability, T/C [33]: 33.2%; viability, T/C [22]: 73.8%; viability, T/C [23]: 69.3%; viability, T/C [24]: 68.7%; viability, T/C [25]: 66%; viability, T/C [34]: 56.5%; viability, T/C [35]: 40.8%
